Data on ten sequences can be found in patent publication US20260250318A1, “COMPOSITIONS AND METHODS FOR CROSSING THE BLOOD BRAIN BARRIER” (VOYAGER THERAPEUTICS, INC., priority 2022, published 2026).

The first experiment concerns brains, heart, liver, muscle, and DRG of the NHPs. Description: Maturation of TTM-001 and TTM-002 capsids, NGS enrichment in NHP tissues. The format is in vivo. The note with it: NHP DRG; NGS; relative to AAV9 control. The source says:
This Example describes maturation of the AAV9 capsid variants, TTM-001 (SEQ ID NO: 981 (amino acid) and 983 (DNA), comprising SEQ ID NO: 941 (encoded by SEQ ID NO: 942)) and TTM-002 (SEQ ID NO: 982 (amino acid) and 984 (DNA), comprising SEQ ID NO: […] (encoded by SEQ ID NO: 944)) in NHPs to further enhance their transduction and biodistribution in the central nervous system as well as other tissues, and evolve the AAV capsid variants to provide further cross-species compatibility. Two approaches were used to mature the TTM-001 and TTM-002 capsid sequences in order to randomize and mutate within and around the peptide insert comprised within loop IV of the capsid variant. […] In the first maturation approach, sets of three contiguous amino acids were randomized across the mutagenesis region in the TTM-001 and TTM-002 sequences, which spanned from position 450 to position 466, numbered according to SEQ ID NO: 981 and 982. In the second maturation approach, mutagenic primers were used to introduce point mutations at a low frequency, scattered across the mutagenesis region in the TTM-001 and TTM-002 sequences ranging from position 449 to position 466, numbered according to SEQ ID NO: 981 and 982. AAV capsid variants arising from each maturation approach for TTM-001 and TTM-002 were pooled together, for subsequent testing and characterization in NHPs.
The library of pooled matured AAV capsid variants generated using the first maturation approach and the second maturation approach for the TTM-001 and TTM-002 AAV capsid variants were injected into two NHPs. […] Following RNA recovery and RT-PCR amplification, a systematic NGS enrichment analysis was performed to calculate the fold enrichment ratio relative to an AAV9 control, and the peptides comprised within the variants were identified.
Following the RNA recovery and NGS analysis from the second maturation approach, approximately 680,000 capsid variants were identified. The 680,000 matured capsid variants were then filtered based on samples with a raw virus count greater than 10 and a coefficient of variance (CV) of less than 1, which was calculated for each peptide across the brain samples taken from the two NHPs. […] Using this filtering criteria, this led to approximately 64,000 matured capsid variants.
KTINGSGSPHSKACQFQT: the “Fold Enrichment relative to AAV9, DRG (NHP)” value was found to be 0.000 fold.
On the same count and under the same terms, the value for KTINGSGSPHSGCQNQQT was 0.000 fold; that for KTINGSGSPHSKALRWQT was 0.000 fold; that for KTINGSGSPHSTTCNQQT was 0.000 fold.
Same read-out and setting: the value for KTINHRISPHSKAQNQQT was 0.000 fold.
The same measure, in the same setting: the value for KTIKRYGSPHSKAQNQQT was 0.000 fold; that for KTINGSGSPHSKRKRQQT was 0.000 fold.
For KTINGSGSPHSKACSRQT, the “Fold Enrichment relative to AAV9, DRG (NHP)” value is 0.000 fold.
“KYVFGSGSPHSKAQNQQT (peptide inserted in AAV capsid)”: the “Fold Enrichment relative to AAV9, DRG (NHP)” value worked out at 0.000 fold.
Take KTQRKSGSPHSKAQNQQT: the “Fold Enrichment relative to AAV9, DRG (NHP)” value came to 0.000 fold.

Staying with this experiment, now noted: NHP brain; NGS; relative to AAV9 control.
KTINGSGSPHSKACQFQT: the “Fold Enrichment relative to AAV9, Brain (NHP)” value is on record as 0.000 fold.
As for KTINGSGSPHSGCQNQQT, the “Fold Enrichment relative to AAV9, Brain (NHP)” value stood at 0.000 fold.
Still for that read-out and setting: the value for KTINGSGSPHSKALRWQT was 0.000 fold.
Same read-out and setting: the value for KTINGSGSPHSTTCNQQT was 0.000 fold; that for KTINHRISPHSKAQNQQT was 0.000 fold; that for KTIKRYGSPHSKAQNQQT was 0.000 fold.
For KTINGSGSPHSKRKRQQT, the “Fold Enrichment relative to AAV9, Brain (NHP)” value was 0.000 fold.
With KTINGSGSPHSKACSRQT, the “Fold Enrichment relative to AAV9, Brain (NHP)” value was 0.000 fold.
The same measure, in the same setting: the value for “KYVFGSGSPHSKAQNQQT (peptide inserted in AAV capsid)” was 0.000 fold.
The same measure, in the same setting: the value for KTQRKSGSPHSKAQNQQT was 0.000 fold.

The experiment is the same for the next values; noted with them: NHP heart; NGS; relative to AAV9 control.
As for KTINGSGSPHSKACQFQT, the “Fold Enrichment relative to AAV9, Heart (NHP)” value was found to be 0.000 fold.
Same read-out and setting: the value for KTINGSGSPHSGCQNQQT was 0.000 fold.
Same read-out and setting: the value for KTINGSGSPHSKALRWQT was 0.000 fold.
As to KTINGSGSPHSTTCNQQT, the “Fold Enrichment relative to AAV9, Heart (NHP)” value is 0.000 fold.
Same read-out and setting: the value for KTINHRISPHSKAQNQQT was 0.000 fold.
The same measure, in the same setting: the value for KTIKRYGSPHSKAQNQQT was 0.000 fold; that for KTINGSGSPHSKRKRQQT was 0.000 fold; that for KTINGSGSPHSKACSRQT was 0.000 fold.
In the case of “KYVFGSGSPHSKAQNQQT (peptide inserted in AAV capsid)”, the “Fold Enrichment relative to AAV9, Heart (NHP)” value amounted to 0.000 fold.
The same measure, in the same setting: the value for KTQRKSGSPHSKAQNQQT was 0.000 fold.

The same experiment, now with this note: NHP liver DNA; NGS; relative to AAV9 control.
KTINGSGSPHSKACQFQT: the “Fold Enrichment relative to AAV9, Liver DNA (NHP)” value is 8.562 fold.
With KTINGSGSPHSGCQNQQT, the “Fold Enrichment relative to AAV9, Liver DNA (NHP)” value amounted to 1.981 fold.
Still for that read-out and setting: the value for KTINGSGSPHSKALRWQT was 5.252 fold.
Same read-out and setting: the value for KTINGSGSPHSTTCNQQT was 3.315 fold; that for KTINHRISPHSKAQNQQT was 1.876 fold; that for KTIKRYGSPHSKAQNQQT was 2.022 fold.
The same measure, in the same setting: the value for KTINGSGSPHSKRKRQQT was 3.027 fold; that for KTINGSGSPHSKACSRQT was 2.468 fold.
Take “KYVFGSGSPHSKAQNQQT (peptide inserted in AAV capsid)”: the “Fold Enrichment relative to AAV9, Liver DNA (NHP)” value turned out to be 2.346 fold.
Same read-out and setting: the value for KTQRKSGSPHSKAQNQQT was 1.439 fold.

The experiment is the same for the next values; noted with them: NHP liver RNA; NGS; TTM-001 and TTM-002 matured AAV capsid variants; relative to AAV9 control.
Turning to KTINGSGSPHSKACQFQT, the “Fold Enrichment relative to AAV9, Liver RNA (NHP)” value came to 17.640 fold.
Turning to KTINGSGSPHSGCQNQQT, the “Fold Enrichment relative to AAV9, Liver RNA (NHP)” value stood at 24.818 fold.
On the same count and under the same terms, the value for KTINGSGSPHSKALRWQT was 14.118 fold; that for KTINGSGSPHSTTCNQQT was 23.771 fold.
On the same count and under the same terms, the value for KTINHRISPHSKAQNQQT was 42.998 fold; that for KTIKRYGSPHSKAQNQQT was 11.461 fold.
On the same count and under the same terms, the value for KTINGSGSPHSKRKRQQT was 11.215 fold; that for KTINGSGSPHSKACSRQT was 42.696 fold.
“KYVFGSGSPHSKAQNQQT (peptide inserted in AAV capsid)”: the “Fold Enrichment relative to AAV9, Liver RNA (NHP)” value is reported as 22.232 fold.
For KTQRKSGSPHSKAQNQQT, the “Fold Enrichment relative to AAV9, Liver RNA (NHP)” value worked out at 119.659 fold.

The same experiment, now with this note: NHP muscle; NGS; relative to AAV9 control.
Turning to KTINGSGSPHSKACQFQT, the “Fold Enrichment relative to AAV9, Muscle (NHP)” value is recorded as 9.605 fold.
Still for that read-out and setting: the value for KTINGSGSPHSGCQNQQT was 0.000 fold; that for KTINGSGSPHSKALRWQT was 0.000 fold.
The same measure, in the same setting: the value for KTINGSGSPHSTTCNQQT was 0.000 fold; that for KTINHRISPHSKAQNQQT was 0.000 fold.
On the same count and under the same terms, the value for KTIKRYGSPHSKAQNQQT was 0.000 fold; that for KTINGSGSPHSKRKRQQT was 0.000 fold; that for KTINGSGSPHSKACSRQT was 0.000 fold.
For the sequence “KYVFGSGSPHSKAQNQQT (peptide inserted in AAV capsid)”, the “Fold Enrichment relative to AAV9, Muscle (NHP)” value turned out to be 0.000 fold.
The same measure, in the same setting: the value for KTQRKSGSPHSKAQNQQT was 0.000 fold.
